From PubChem BioAssay AID1963864 (Molecular Pharmacology Branch, DTP, NCI, 2024)

System: KRAS PDC multicell spheroid viability
Test: Anticancer human tumor 521955-158-R6-J3-PDC patient-derived pancreatic carcinoma cell line growth inhibition [KRAS2]
Details: for viability, T/C: stronger effect = lower value
Summary of the method: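 KRAS-mutant tumor cells were grown as spheroids with HUVEC endothelial cells and human MSCs as stroma. Targeted agents were tested alone and with KRAS pathway inhibitors. Doses started at or near clinical Cmax, or 10 microM, descending half-log.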

[1] = curve of first compound, second compound 0.1 µM
[2] = curve of first compound, second compound 0.316 µM
[3] = curve of first compound, second compound 1 µM
[4] = curve of first compound, second compound 3.16 µM
[5] = curve of first compound, second compound 10 µM
[6] = second compound 0.1 µM, first compound 0.0316 µM
[7] = second compound 0.1 µM, first compound 0.1 µM
[8] = second compound 0.1 µM, first compound 0.316 µM
[9] = second compound 0.1 µM, first compound 1 µM
[10] = second compound 0.1 µM, first compound 3.16 µM
[11] = second compound 0.1 µM, first compound 10 µM
[12] = second compound 0.316 µM, first compound 0.0316 µM
[13] = second compound 0.316 µM, first compound 0.1 µM
[14] = second compound 0.316 µM, first compound 0.316 µM
[15] = second compound 0.316 µM, first compound 1 µM
[16] = second compound 0.316 µM, first compound 3.16 µM
[17] = second compound 0.316 µM, first compound 10 µM
[18] = second compound 1 µM, first compound 0.0316 µM
[19] = second compound 1 µM, first compound 0.1 µM
[20] = second compound 1 µM, first compound 0.316 µM
[21] = second compound 1 µM, first compound 1 µM
[22] = second compound 1 µM, first compound 3.16 µM
[23] = second compound 1 µM, first compound 10 µM
[24] = second compound 3.16 µM, first compound 0.0316 µM
[25] = second compound 3.16 µM, first compound 0.1 µM
[26] = second compound 3.16 µM, first compound 0.316 µM
[27] = second compound 3.16 µM, first compound 1 µM
[28] = second compound 3.16 µM, first compound 3.16 µM
[29] = second compound 3.16 µM, first compound 10 µM
[30] = second compound 10 µM, first compound 0.0316 µM
[31] = second compound 10 µM, first compound 0.1 µM
[32] = second compound 10 µM, first compound 0.316 µM
[33] = second compound 10 µM, first compound 1 µM
[34] = second compound 10 µM, first compound 3.16 µM
[35] = second compound 10 µM, first compound 10 µM
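Also: drug exposure lasted seven days.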
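For viability, T/C in this document: 100% = DMSO vehicle wells and lower means fewer viable cells.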

Compound: CC1(C)CCC(CN2CCN(c3ccc(C(=O)NS(=O)(=O)c4ccc(NCC5CCOCC5)c([N+](=O)[O-])c4)c(Oc4cnc5[nH]ccc5c4)c3)CC2)=C(c2ccc(Cl)cc2)C1 + CC1OCC2(CCN(c3cnc(Sc4ccnc(N)c4Cl)c(N)n3)CC2)C1N
- IC50 [1]: 7.01 µM
- IC50 [2]: 5.82 µM
- IC50 [3]: 5.51 µM
- IC50 [4]: 4.36 µM
- IC50 [5]: 2.84 µM
- viability, T/C [6]: 96%
- viability, T/C [7]: 89.7%
- viability, T/C [8]: 95.3%
- viability, T/C [9]: 77.6%
- viability, T/C [10]: 70.5%
- viability, T/C [11]: 41.3%
- viability, T/C [12]: 86.2%
- viability, T/C [13]: 98.2%
- viability, T/C [14]: 89%
- viability, T/C [15]: 87%
- viability, T/C [16]: 62%
- viability, T/C [17]: 39.3%
- viability, T/C [18]: 102%
- viability, T/C [19]: 94.7%
- viability, T/C [20]: 103%
- viability, T/C [21]: 99%
- viability, T/C [22]: 71.1%
- viability, T/C [23]: 27.3%
- viability, T/C [24]: 115%
- viability, T/C [25]: 120%
- viability, T/C [26]: 121%
- viability, T/C [27]: 116%
- viability, T/C [28]: 64.2%
- viability, T/C [29]: 13.1%
- viability, T/C [30]: 107%
- viability, T/C [31]: 109%
- viability, T/C [32]: 114%
- viability, T/C [33]: 107%
- viability, T/C [34]: 44.3%
- viability, T/C [35]: 3.41%

Compound: CNCc1ccccc1-c1csc(C(C)Nc2nc(C)nc3cc(OC)c(OC)cc23)c1 (stereo not given)
- viability, T/C (compound 0.1 µM): 84.1% [middle of 16 runs]
- viability, T/C (compound 0.316 µM): 79% [middle of 16 runs]
- viability, T/C (compound 10 µM): 0.23% [middle of 15 runs]
- IC50 (compound alone, run of 08/26/2021): 1.48 µM [middle of 5 runs]
- IC50 (compound alone, run of 09/02/2021): 1.4 µM [middle of 5 runs]

Compound: CC1COCCN1c1cc(-c2ccnn2C)c2ccnc(-c3ccn[nH]3)c2n1 (stereo not given)
- viability, T/C (compound 0.01 µM): 99.8% [middle of 5 runs]
- viability, T/C (compound 0.0316 µM): 90.3% [middle of 5 runs]
- viability, T/C (compound 0.1 µM): 83.4% [middle of 5 runs]
- viability, T/C (compound 0.316 µM): 78.2% [middle of 5 runs]
- viability, T/C (compound 1 µM): 84.7% [middle of 5 runs]
- viability, T/C (compound 3.16 µM): 86.6% [middle of 5 runs]
- IC50 (curve of compound): > 3.16 µM

Compound: O=C(c1cc(Cc2n[nH]c(=O)c3ccccc23)ccc1F)N1CCN(C(=O)C2CC2)CC1
- viability, T/C (compound 0.0316 µM): 89.9% [middle of 5 runs]
- viability, T/C (compound 0.316 µM): 86.2% [middle of 5 runs]
- viability, T/C (compound 3.16 µM): 78.3% [middle of 5 runs]
- IC50 (curve of compound): > 10 µM

Compound: COC(=O)c1ccc2c(C(=Nc3ccc(N(C)C(=O)CN4CCN(C)CC4)cc3)c3ccccc3)c(O)[nH]c2c1
- viability, T/C (compound 0.0316 µM): 96.5% [middle of 5 runs]
- viability, T/C (compound 0.1 µM): 109% [middle of 5 runs]
- viability, T/C (compound 10 µM): 0.34% [middle of 5 runs]
- IC50 (curve of compound): 3.54 µM [middle of 5 runs]

Compound: O=C(c1cc(Cc2n[nH]c(=O)c3ccccc23)ccc1F)N1CCN(C(=O)C2CC2)CC1 + CNCc1ccccc1-c1csc(C(C)Nc2nc(C)nc3cc(OC)c(OC)cc23)c1
- IC50 [1]: > 10 µM
- IC50 [2]: > 10 µM
- IC50 [3]: > 10 µM
- IC50 [4]: < 0.0316 µM
- IC50 [5]: < 0.0316 µM
- viability, T/C [6]: 72.8%
- viability, T/C [7]: 79.4%
- viability, T/C [8]: 75.4%
- viability, T/C [9]: 71.6%
- viability, T/C [10]: 66.7%
- viability, T/C [11]: 71.9%
- viability, T/C [12]: 65.6%
- viability, T/C [13]: 65.3%
- viability, T/C [14]: 64.6%
- viability, T/C [15]: 62%
- viability, T/C [16]: 56.5%
- viability, T/C [17]: 66.5%
- viability, T/C [18]: 61.3%
- viability, T/C [19]: 68.7%
- viability, T/C [20]: 62.8%
- viability, T/C [21]: 55%
- viability, T/C [22]: 64.3%
- viability, T/C [23]: 62.9%
- viability, T/C [24]: 1.32%
- viability, T/C [25]: 3.56%
- viability, T/C [26]: 0.56%
- viability, T/C [27]: 0.32%
- viability, T/C [28]: 3.02%
- viability, T/C [29]: 0.56%
- viability, T/C [30]: 0.13%
- viability, T/C [31]: 0.47%
- viability, T/C [32]: 1.37%
- viability, T/C [33]: 0.65%
- viability, T/C [34]: 0.77%
- viability, T/C [35]: 0.19%
